For one test, the target named is CDK1/cyclin B (Homo sapiens, UniProt P06493). As to the kind of experiment: Kinase assay CDK1/cyclin B. The class given is biochemical. As to conditions: Table 2; read-out: Kinase Inhibition IC50 CDK1 cyclin B. In short, it runs like this:
(§1)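 Each kinase phosphorylates a suitable polypeptide using 32P-labelled ATP (100 μM) at 30° C. Filtered, washed product is counted.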

The target in a further test is GSK-3β (Homo sapiens, UniProt P49841). As to the kind of experiment: Kinase assay GSK-3β. The class given is biochemical. As to conditions: Table 2; read-out: Kinase Inhibition IC50 GSK-3β. How it is done:
(§2) Kinase assays. […] This was achieved by measurement of incorporation of radioactive phosphate from ATP into appropriate polypeptide substrates. Recombinant protein kinases and kinase complexes were produced or obtained commercially. Assays were performed using 96-well plates and appropriate assay buffers (typically 25 mM β-glycerophosphate, 20 mM MOPS, 5 mM EGTA, 1 mM DTT, 1 mM […], pH 7.4), into which were added 2-4 μg of active enzyme with appropriate substrates. The reactions were initiated by addition of Mg/ATP mix (15 mM MgCl2+100 μM ATP with 30-50 kBq per well of [γ-^32P]-ATP) and mixtures incubated as required at 30° C. Reactions were stopped on ice, followed by filtration through p81 filterplates or GF/C filterplates (Whatman Polyfiltronics, Kent, UK). After washing 3 times with 75 mM aq orthophosphoric acid, plates were dried, scintillant added and incorporated radioactivity measured in a scintillation counter (TopCount, Packard Instruments, Pangbourne, Berks, UK). Compounds for kinase assay were made-up as 10 mM stocks in DMSO and diluted into 10% DMSO inrassay buffer.

A further test concerns the target PLK-1 (Homo sapiens, UniProt P53350). As to the kind of experiment: Kinase assay PLK-1. The class given is biochemical. As to conditions: Table 2; read-out: Kinase Inhibition IC50 PLK-1. As for the experimental part: as §2
The next test deals with CDK7/cyclin H (Homo sapiens, UniProt P50613). As to the kind of experiment: CDK7 assay. As to conditions: Table 2; read-out: Kinase Inhibition IC50 CDK7 cyclin H. It is filed as biochemical. An outline of the steps: (§3)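 Radiometric filter-binding format: test compound at varying amounts incubated with CTD peptide (biotinyl-Ahx-(YSPTSPS)4-NH2) and either CDK9/cyclin T1 or CDK7/cyclin H, using 100 μM ATP spiked with 32P, 45 min, 30 °C, pH 7.2. Reactions were stopped on ice, bound to avidin, filtered on P81 plates and scintillation-counted.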

The next test concerns the target CDK9/cyclin T1 (Homo sapiens, UniProt P50750). In words: CDK9 assay. It is filed as biochemical. Particulars: Table 2; read-out: Kinase Inhibition IC50 CDK9 cyclin T1. An outline of the steps: as §3
Another test concerns the target CDK4/cyclin D1 (Homo sapiens, UniProt P11802). In words: Kinase assay CDK4/cyclin D1. The class given is biochemical. Particulars: Table 2; read-out: Kinase Inhibition IC50 CDK4 cyclin D1. In short, it runs like this:
as §1

The test system of another test is Saos-2. In words: 72-h MTT cytotoxicity assay Saos-2. The class given is cell-based. Particulars: Homo sapiens, SAOS-2, 72 h, Table 4. An outline of the steps:
(§4)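 Growth inhibition is measured after 72 h continuous compound treatment at 37° C, using threefold serial dilutions tested in triplicate. Cell viability is assessed by MTT conversion, with the dye dissolved in DMSO.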

Another test concerns A549. As to the kind of experiment: 72-h MTT cytotoxicity assay A549. It is filed as cell-based. Particulars: Homo sapiens, A549, 72 h, Table 4. In short, it runs like this:
as §4
A general note: Tetrazolium dyes change colour on reduction, which living cells bring about.

A further test relates to HT29. In words: 72-h MTT cytotoxicity assay HT29. It is filed as cell-based. Particulars: Homo sapiens, HT-29, 72 h, Table 4. In short, it runs like this:
as §4

Another test addresses CDK2/cyclin E (Homo sapiens, UniProt P24941). As to the kind of experiment: Kinase assay CDK2/cyclin E. It is filed as biochemical. As to conditions: Table 2; read-out: Kinase Inhibition IC50 CDK2 cyclin E. An outline of the steps: as §1
A further test concerns the target CDK2/cyclin A (Homo sapiens, UniProt P24941). As to the kind of experiment: Kinase assay CDK2/cyclin A. The class given is biochemical. Particulars: Table 2; read-out: Kinase Inhibition IC50 CDK2 cyclin A. In short, it runs like this: as §1

Chain of CDK4/cyclin D1 (P11802 whole entry): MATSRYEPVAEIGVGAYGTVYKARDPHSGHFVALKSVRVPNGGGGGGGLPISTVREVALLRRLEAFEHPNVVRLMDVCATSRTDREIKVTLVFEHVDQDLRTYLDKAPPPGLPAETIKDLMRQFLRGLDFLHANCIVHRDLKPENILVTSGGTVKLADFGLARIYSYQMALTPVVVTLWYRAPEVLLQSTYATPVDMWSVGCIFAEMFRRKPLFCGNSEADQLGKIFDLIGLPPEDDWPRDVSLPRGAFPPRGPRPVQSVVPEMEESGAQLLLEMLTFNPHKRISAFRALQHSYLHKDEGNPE
Chain of CDK4/cyclin D1 (P24385 whole entry partner): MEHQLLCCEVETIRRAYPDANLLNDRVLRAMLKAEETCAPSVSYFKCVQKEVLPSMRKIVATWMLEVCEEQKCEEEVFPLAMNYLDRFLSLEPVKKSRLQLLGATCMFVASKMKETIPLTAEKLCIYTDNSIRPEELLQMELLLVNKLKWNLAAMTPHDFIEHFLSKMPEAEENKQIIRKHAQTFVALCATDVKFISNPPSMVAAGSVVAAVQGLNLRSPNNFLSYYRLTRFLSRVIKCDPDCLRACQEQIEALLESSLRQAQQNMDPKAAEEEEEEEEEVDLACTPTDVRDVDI
Chain of GSK-3β (P49841 whole entry): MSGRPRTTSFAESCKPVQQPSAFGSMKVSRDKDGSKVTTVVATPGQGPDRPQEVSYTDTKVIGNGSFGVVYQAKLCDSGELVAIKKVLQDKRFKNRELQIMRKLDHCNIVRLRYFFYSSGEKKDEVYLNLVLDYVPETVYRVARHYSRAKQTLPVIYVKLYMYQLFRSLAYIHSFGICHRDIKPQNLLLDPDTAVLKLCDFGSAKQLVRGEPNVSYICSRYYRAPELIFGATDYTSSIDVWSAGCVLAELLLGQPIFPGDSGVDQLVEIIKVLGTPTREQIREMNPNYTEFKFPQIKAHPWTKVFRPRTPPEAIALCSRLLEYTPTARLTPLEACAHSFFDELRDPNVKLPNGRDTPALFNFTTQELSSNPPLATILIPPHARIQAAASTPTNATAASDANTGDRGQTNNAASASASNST
Chain of CDK7/cyclin H (P50613 whole entry): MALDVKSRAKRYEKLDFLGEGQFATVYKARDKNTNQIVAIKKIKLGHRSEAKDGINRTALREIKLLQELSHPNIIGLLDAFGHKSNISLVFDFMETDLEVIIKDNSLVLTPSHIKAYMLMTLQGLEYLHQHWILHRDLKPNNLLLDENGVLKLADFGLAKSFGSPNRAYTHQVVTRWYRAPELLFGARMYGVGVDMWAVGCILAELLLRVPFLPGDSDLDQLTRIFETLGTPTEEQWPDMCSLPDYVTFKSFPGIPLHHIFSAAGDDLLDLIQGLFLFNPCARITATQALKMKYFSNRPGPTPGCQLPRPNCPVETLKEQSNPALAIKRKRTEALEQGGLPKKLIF
Chain of CDK1/cyclin B (P06493 whole entry): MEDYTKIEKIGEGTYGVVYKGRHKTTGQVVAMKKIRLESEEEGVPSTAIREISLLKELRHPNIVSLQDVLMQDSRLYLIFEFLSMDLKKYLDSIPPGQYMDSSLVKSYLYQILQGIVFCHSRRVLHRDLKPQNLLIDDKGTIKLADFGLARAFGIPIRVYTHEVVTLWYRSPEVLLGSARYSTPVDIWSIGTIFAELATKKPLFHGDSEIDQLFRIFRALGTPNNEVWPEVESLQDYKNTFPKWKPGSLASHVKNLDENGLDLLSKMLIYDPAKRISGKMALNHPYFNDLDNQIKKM
Chain of CDK1/cyclin B (P14635 whole entry partner): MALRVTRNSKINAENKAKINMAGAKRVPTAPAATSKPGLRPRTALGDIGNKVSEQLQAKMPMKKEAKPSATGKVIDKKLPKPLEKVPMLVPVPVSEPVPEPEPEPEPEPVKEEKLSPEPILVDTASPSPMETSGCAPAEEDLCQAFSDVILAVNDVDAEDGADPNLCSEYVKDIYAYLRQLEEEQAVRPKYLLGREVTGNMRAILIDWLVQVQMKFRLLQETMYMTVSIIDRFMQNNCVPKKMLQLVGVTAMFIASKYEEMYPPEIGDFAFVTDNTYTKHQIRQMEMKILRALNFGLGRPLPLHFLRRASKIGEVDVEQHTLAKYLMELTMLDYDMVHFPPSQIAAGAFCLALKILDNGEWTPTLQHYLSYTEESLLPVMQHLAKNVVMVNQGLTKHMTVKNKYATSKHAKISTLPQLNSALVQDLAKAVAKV
Chain of CDK9/cyclin T1 (P50750 whole entry): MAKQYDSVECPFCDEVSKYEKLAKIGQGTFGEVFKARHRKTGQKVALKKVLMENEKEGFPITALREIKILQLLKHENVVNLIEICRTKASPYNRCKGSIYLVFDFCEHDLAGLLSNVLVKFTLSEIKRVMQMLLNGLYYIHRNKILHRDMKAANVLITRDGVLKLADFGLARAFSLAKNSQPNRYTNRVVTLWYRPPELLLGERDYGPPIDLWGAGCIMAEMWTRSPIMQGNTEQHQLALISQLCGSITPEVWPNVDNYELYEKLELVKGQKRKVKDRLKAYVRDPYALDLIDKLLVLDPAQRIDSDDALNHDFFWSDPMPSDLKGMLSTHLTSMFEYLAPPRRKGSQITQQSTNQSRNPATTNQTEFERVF
Chain of CDK9/cyclin T1 (O60563 whole entry partner): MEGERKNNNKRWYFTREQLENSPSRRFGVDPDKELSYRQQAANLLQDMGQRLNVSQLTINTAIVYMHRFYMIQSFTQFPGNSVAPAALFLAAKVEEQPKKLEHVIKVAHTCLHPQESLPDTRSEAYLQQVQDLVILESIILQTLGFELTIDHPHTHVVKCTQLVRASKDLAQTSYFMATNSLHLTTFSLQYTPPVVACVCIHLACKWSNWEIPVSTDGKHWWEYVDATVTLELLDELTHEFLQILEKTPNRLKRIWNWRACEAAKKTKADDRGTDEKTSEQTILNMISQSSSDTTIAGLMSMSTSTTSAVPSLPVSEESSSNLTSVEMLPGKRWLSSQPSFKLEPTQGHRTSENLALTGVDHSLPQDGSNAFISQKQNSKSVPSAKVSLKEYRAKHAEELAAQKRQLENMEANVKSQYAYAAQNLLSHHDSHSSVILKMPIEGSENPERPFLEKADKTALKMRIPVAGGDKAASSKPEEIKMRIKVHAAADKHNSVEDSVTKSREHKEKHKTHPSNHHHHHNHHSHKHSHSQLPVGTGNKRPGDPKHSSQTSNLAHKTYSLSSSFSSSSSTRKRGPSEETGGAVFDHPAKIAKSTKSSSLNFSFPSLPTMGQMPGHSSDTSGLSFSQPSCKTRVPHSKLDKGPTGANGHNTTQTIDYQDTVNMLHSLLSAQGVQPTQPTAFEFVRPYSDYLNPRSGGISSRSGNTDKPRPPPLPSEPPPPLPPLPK
Chain of PLK-1 (P53350 whole entry): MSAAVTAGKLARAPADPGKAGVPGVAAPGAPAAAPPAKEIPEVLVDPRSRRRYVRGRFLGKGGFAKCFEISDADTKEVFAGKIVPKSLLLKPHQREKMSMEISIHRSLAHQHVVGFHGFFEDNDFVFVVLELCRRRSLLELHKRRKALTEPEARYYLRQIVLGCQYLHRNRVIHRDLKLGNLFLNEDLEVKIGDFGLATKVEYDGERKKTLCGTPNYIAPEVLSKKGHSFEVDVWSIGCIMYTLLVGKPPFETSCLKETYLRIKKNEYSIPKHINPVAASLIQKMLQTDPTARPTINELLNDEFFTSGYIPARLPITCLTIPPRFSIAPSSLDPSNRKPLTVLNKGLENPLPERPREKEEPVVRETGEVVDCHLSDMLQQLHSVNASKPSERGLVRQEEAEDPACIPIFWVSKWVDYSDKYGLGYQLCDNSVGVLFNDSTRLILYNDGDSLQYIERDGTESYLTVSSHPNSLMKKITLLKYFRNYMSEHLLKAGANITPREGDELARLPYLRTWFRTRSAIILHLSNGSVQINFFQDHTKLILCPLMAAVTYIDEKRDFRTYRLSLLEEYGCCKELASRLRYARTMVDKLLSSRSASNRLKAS

As to `Cc1nc(C)c(-c2ccnc(Nc3ccc(N4CCOCC4)cc3)n2)s1` [Compound 2, [4-(2,4-Dimethyl-thiazol-5-yl)-pyrimidin-2-yl]-(4-morpholin-4-yl-phenyl)-amine], the IC50 (as a rule, the concentration needed to halve the response being measured) was 75000 nM on CDK1/cyclin B; greater than 100000 nM on GSK-3β; greater than 100000 nM on PLK-1; 97000 nM at CDK7/cyclin H; 23000 nM at CDK9/cyclin T1; 3900 nM on CDK4/cyclin D1. Moreover, the IC50 in the test on Saos-2 was 4800 nM; in the test with A549, 3500 nM; with HT29 it was 3300 nM.

As to `CC(=O)N1CCN(c2ccc(Nc3nccc(-c4sc(C)nc4C)n3)cc2)CC1` [Compound 5, 1-(4-{4-[4-(2,4-Dimethyl-thiazol-5-yl)-pyrimidin-2-ylamino]-phenyl}-piperazin-1-yl)-ethanone], the IC50 came to 5600 nM on CDK1/cyclin B; 21000 nM at GSK-3β; 35000 nM at PLK-1; 5600 nM on CDK7/cyclin H; 6100 nM on CDK9/cyclin T1; 1700 nM on CDK4/cyclin D1. The IC50 amounted to 3900 nM in the test on Saos-2, 3800 nM with A549 and 2200 nM with HT29.

For `Cc1nc(C)c(-c2ccnc(Nc3ccc(N4CCNCC4)cc3)n2)s1` [Compound 6, [4-(2,4-Dimethyl-thiazol-5-yl)-pyrimidin-2-yl]-(4-piperazin-1-yl-phenyl)-amine], the IC50 on CDK1/cyclin B is 3000 nM; at GSK-3β it was 5200 nM; at CDK2/cyclin E it was 710 nM; on PLK-1, 13000 nM; on CDK7/cyclin H, 1300 nM; on CDK2/cyclin A it was 850 nM. Moreover, the IC50 at CDK9/cyclin T1 came out at 1000 nM; at CDK4/cyclin D1 it was 390 nM; in the test with Saos-2, 780 nM; in the test with A549, 1300 nM; with HT29 it was 1100 nM.

Regarding `Cc1nc(C)c(-c2ccnc(Nc3ccc(N4CCN(CCCO)CC4)cc3)n2)s1` [Compound 8, 3-(4-{4-[4-(2,4-Dimethyl-thiazol-5-yl)-pyrimidin-2-ylamino]-phenyl}-piperazin-1-yl)-propan-1-ol], the IC50 at CDK1/cyclin B was 4900 nM; at GSK-3β, 39000 nM; at CDK2/cyclin E, 1200 nM; on PLK-1 it was greater than 150000 nM; on CDK7/cyclin H, 970 nM; on CDK2/cyclin A, 1100 nM. The IC50 at CDK9/cyclin T1 turned out to be 510 nM; on CDK4/cyclin D1, 360 nM; in the test on Saos-2, 380 nM; in the test with A549 it was 610 nM; in the test with HT29, 800 nM.

Turning to `Cc1nc(C)c(-c2ccnc(Nc3ccc(N4CCN(C)CC4)cc3)n2)s1` [Compound 12, [4-(2,4-Dimethyl-thiazol-5-yl)-pyrimidin-2-yl]-[4-(4-methyl-piperazin-1-yl)-phenyl]-amine], the IC50 on CDK1/cyclin B was determined as 4200 nM; on GSK-3β, 53000 nM; at CDK2/cyclin E, 1800 nM; at PLK-1, 55000 nM; at CDK7/cyclin H it was 1100 nM; on CDK2/cyclin A, 1000 nM. Besides, the IC50 at CDK9/cyclin T1 turned out to be 280 nM; on CDK4/cyclin D1, 190 nM; in the test with Saos-2, 430 nM; in the test on A549 it was 710 nM; in the test with HT29, 740 nM.

Take `Cc1nc(NC(=O)CCN2CCOCC2)sc1-c1ccnc(Nc2ccc(F)cc2)n1` [Compound 21, N-{5-[2-(4-Fluoro-phenylamino)-pyrimidin-4-yl]-4-methyl-thiazol-2-yl}-3-morpholin-4-yl-propionamide]: the 50% inhibitory concentration (IC50) is 540 nM on CDK1/cyclin B; 14000 nM on GSK-3β; 97 nM on CDK2/cyclin E; greater than 200000 nM at PLK-1; 4900 nM on CDK7/cyclin H; 320 nM on CDK2/cyclin A. Also, the IC50 on CDK9/cyclin T1 worked out at 460 nM; at CDK4/cyclin D1 it was 1300 nM; with Saos-2, 4300 nM; in the test with A549 it was 8600 nM; in the test on HT29 it was 4100 nM.

On to `Cc1nc(NC(=O)CCN2CCOCC2)sc1-c1ccnc(Nc2cccc([N+](=O)[O-])c2)n1` [Compound 22, N-{4-Methyl-5-[2-(3-nitro-phenylamino)-pyrimidin-4-yl]-thiazol-2-yl}-3-morpholin-4-yl-propionamide], for which the IC50 was 240 nM at CDK1/cyclin B; 250 nM at GSK-3β; 2.5 nM at CDK2/cyclin E; greater than 100000 nM on PLK-1; 200 nM on CDK7/cyclin H; 98 nM on CDK2/cyclin A. In addition, the IC50 at CDK9/cyclin T1 was 110 nM; at CDK4/cyclin D1, 1700 nM; in the test on Saos-2, 600 nM; in the test with A549, 810 nM; in the test with HT29, 520 nM.

Regarding `Cc1nc(N2CCOCC2)sc1-c1ccnc(Nc2cccc(O)c2)n1` [Compound 55, 3-[4-(4-Methyl-2-morpholin-4-yl-thiazol-5-yl)-pyrimidin-2-ylamino]-phenol], the IC50 is 2400 nM on CDK1/cyclin B; 67000 nM on GSK-3β; 79 nM at CDK2/cyclin E; 2200 nM on CDK7/cyclin H; 61000 nM at CDK2/cyclin A; 2100 nM on CDK9/cyclin T1. For the same compound, the IC50 at CDK4/cyclin D1 came out at 1000 nM; with Saos-2, 1400 nM; with A549 it was 2300 nM; in the test on HT29, 5100 nM.

For `Cc1nc(N2CCOCC2)sc1-c1ccnc(Nc2ccc(N(C)C)cc2)n1` [Compound 57, N,N-Dimethyl-N′-[4-(4-methyl-2-morpholin-4-yl-thiazol-5-yl)-pyrimidin-2-yl]-benzene-1,4-diamine], the IC50 at CDK1/cyclin B amounted to 7700 nM; on GSK-3β, 74000 nM; on CDK2/cyclin E it was 350 nM; at CDK7/cyclin H, 190 nM; at CDK2/cyclin A it was 73000 nM; on CDK9/cyclin T1, 12000 nM. The IC50 at CDK4/cyclin D1 amounted to 71 nM; in the test with Saos-2, 3800 nM; in the test with A549 it was 2700 nM; in the test on HT29, 240 nM.

Regarding `Cc1nc(C)c(-c2ccnc(Nc3ccc(Cl)c(CO)c3)n2)s1` [Compound 72, {2-Chloro-5-[4-(2,4-dimethyl-thiazol-5-yl)-pyrimidin-2-ylamino]-phenyl}-methanol], the IC50 at CDK1/cyclin B is 62000 nM; on GSK-3β it was 48000 nM; at CDK2/cyclin E, 730 nM; at CDK7/cyclin H, 9600 nM; on CDK2/cyclin A, 12000 nM; on CDK9/cyclin T1 it was 4100 nM. Further, the concentration for half-maximal inhibition (IC50) turned out to be 25000 nM on CDK4/cyclin D1, 18000 nM in the test on Saos-2, 32000 nM in the test with A549 and 20000 nM in the test on HT29.

As for `CNc1nc(C)c(-c2ccnc(Nc3ccc(Cl)c(CO)c3)n2)s1` [Compound 73, {2-Chloro-5-[4-(4-methyl-2-methylamino-thiazo1-5-yl)-pyrimidin-2-ylamino]-phenyl}-methanol], the IC50 at CDK1/cyclin B came to 1700 nM; on GSK-3β, 5200 nM; at CDK2/cyclin E, 1000 nM; on CDK7/cyclin H, 2000 nM; at CDK2/cyclin A, 1300 nM; on CDK9/cyclin T1 it was 550 nM. In addition, the IC50 at CDK4/cyclin D1 stood at 230 nM; in the test on Saos-2, 2900 nM; in the test with A549, 1500 nM; in the test on HT29, 5500 nM.

`CNc1nc(C)c(-c2ccnc(Nc3ccc(OCCOC)c([N+](=O)[O-])c3)n2)s1` [Compound 77, [4-(2-Methoxy-ethoxy)-3-nitro-phenyl]-[4-(4-methyl-2-methylamino-thiazol-5-yl)-pyrimidin-2-yl]-amine]: the IC50 was determined as 72000 nM at CDK1/cyclin B; 6100 nM at GSK-3β; 150 nM at CDK2/cyclin E; 1000 nM at CDK7/cyclin H; 1000 nM at CDK2/cyclin A; 260 nM on CDK9/cyclin T1. Besides, the half-maximal inhibitory concentration (IC50) on CDK4/cyclin D1 was 3400 nM; in the test on Saos-2, 350 nM; in the test with A549, 310 nM; in the test with HT29, 210 nM.
